According to patent publication US20100204464A1, “ASCORBIC ACID DERIVATIVES, THEIR PREPARATION METHODS, INTERMEDIATES AND USES IN COSMETICS” (NANJING ZHONGSHI CHEMICAL CO., LTD., priority 2007, published 2010):

Assays:
[1] = test system: B16F10 murine melanoma cells; test: MTT experiment: multiplication of melanoma cells; type: cell-based; details: for Multiplication rate of melanoma cell (MTT method, Mean ± SE): 72 h, blank control = 100%; for Concentration at which multiplication of B16F10 cells was significantly inhibited / Concentration with no influence on the multiplication of B16F10 cells: MTT experiment
Procedure: (§1) The effects of preventing melanin from deposition (whitening effects) of 3-O-glycosyl-L-ascorbic acid and 2-O-α-D-glucopyranosyl-L-ascorbic acid (AA-2G) were evaluated by using B16F10 murine melanoma cells. […] The experimental method comprising:
A. MTT experiment: to investigate the influence of each sample on the multiplication of B16F10 murine melanoma cell through cell culture.
All cells were seeded in the 96-well plate respectively at a density of 1*10^4/well, and incubated under 5% CO2 and at 37° C. for 24 h, then the supernatant was removed and to each well was added […] culture medium containing a certain concentration of medicine. Three concentrations, high, middle and low, were set for each medicine, each concentration in quadruplicate wells. For control group, 200 μL culture medium was directly added and incubated for 72 h. 20 μL MTT solution (5 g/L) was added to each well and the sample was incubated under 5% CO2 and at 37° C. for 4 h, then the supernatant was removed and to each well was added 150 μL DMSO. The sample was vibrated for 10 min and the absorbance of each well was measured at a wavelength of 490 nm (reference wavelength: 620 nm) by enzyme-label instrument. Cell multiplication rate=(average absorbance of each concentration of medicine to be screened)/(average absorbance of control group)*100%.

[2] = target: T1, tyrosinase (Mus musculus, UniProt P11344); test: Activity of tyrosinase of B16F10 melanoma cells (L-DOPA, absorbance 490 nm); type: cell-based, murine; details: for Activity of tyrosinase of B16F10 melanoma cell (Mean ± SE): 6 days, control = 100%
T1 construct: endogenous in cells; host or cells: B16F10 murine melanoma cells
T1 sequence (P11344 19-533): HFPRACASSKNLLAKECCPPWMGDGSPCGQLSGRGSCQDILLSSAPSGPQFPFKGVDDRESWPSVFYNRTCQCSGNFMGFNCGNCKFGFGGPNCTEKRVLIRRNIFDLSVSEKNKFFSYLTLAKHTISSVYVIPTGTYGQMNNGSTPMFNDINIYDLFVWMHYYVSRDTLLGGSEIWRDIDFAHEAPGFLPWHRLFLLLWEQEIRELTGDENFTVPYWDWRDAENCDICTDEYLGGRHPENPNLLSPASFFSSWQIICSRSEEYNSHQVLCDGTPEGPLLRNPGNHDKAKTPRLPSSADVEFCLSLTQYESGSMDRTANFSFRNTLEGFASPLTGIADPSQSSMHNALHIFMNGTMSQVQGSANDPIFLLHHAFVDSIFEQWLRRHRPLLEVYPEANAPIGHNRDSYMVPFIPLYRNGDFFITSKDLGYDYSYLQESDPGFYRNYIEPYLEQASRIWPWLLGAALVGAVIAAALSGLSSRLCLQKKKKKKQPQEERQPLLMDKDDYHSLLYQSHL
Procedure: as §1
B. Experiment for determining the activity of tyrosinase: to investigate through cell culture the influence of each sample on the activity of tyrosinase playing an important role in the formation of melanin.
B16F10 cells were seeded in the 96-well plate respectively at a density of 5*10^3/well, and incubated under 5% CO2 and at 37° C. for 24 hour, then the supernatant was removed and to each well was added 100 μL culture medium containing different concentration of medicine to be screened and for blank control group, only culture medium was added. Each group was in quadruplicate and the culture medium was renewed every other day. After being incubated for 6 days, each well was washed by PBS without Ca^2+ and Mg^2+, and then 100 μL Triton-X solution (0.5%) was added to each well. After being vibrated in ultrasound for 30 minutes, 50 μL L-DOPA solution (10 mM/L) was added to each well and the samples was kept at 37° C. for 3 hours. The absorbance of each well was measured at a wavelength of 490 nm (reference wavelength: 620 nm) by enzyme-label instrument. Influence rate of the activity of tyrosinase=(average absorbance of the group of medicine to be screened)/(average absorbance of control group)*100%

[3] = test system: B16F10 cells; test: Quantitative analysis of the content of melanin of B16F10 cells; type: cell-based, murine; details: for Content of melanin of B16F10 cells (Mean ± SE): 6 days, blank control = 100%
Procedure: as §1
D. Quantitative analysis of the content of melanin.
B16F10 cells were seeded in φ 60 mm culture mediums, and incubated under 5% CO2 and at 37° C. for 24 h, then the supernatant was removed and to each medium was added culture medium containing different concentration of medicine and for control group, only culture medium was added. Each group was in triplicate and the culture medium was renewed every other day. After being incubated for 6 days, the cells were digested by 0.25% trypsin/EDTA and collected, then washed by PBS twice. The cells of each group were counted and 0.2 mL redistilled water was added to make the cells suspended for 1 min respectively, then the mixture of 500 μL ethanol and 500 μL ether was added. The cells were placed at room temperature for 15 min and centrifuged at a rate of 3000 rpm for 5 min, then the supernatant was removed and 1 ml NaOH (1 mol/L, containing 10% DMSO) was added to the precipitate. After being placed at 80° C. for 30 min, 4 mL redistilled water was added to dilute the concentration of NaOH to 0.2 mol/L. The absorbance of each group was measured at a wavelength of 475 nm (reference wavelength: 620 nm) by spectrophotometer. The content of melanin=[(absorbance of the group of medicine to be screened/average amount of cells)/(average absorbance of control group/average amount of cells)]*100%

[4] = Stability of aqueous solutions stored 3 months, content by HPLC and color; type: physicochemical; details: for Color, in words / Content (HPLC), in words: 10%, 5% and 1.0% aqueous solutions; for Content (HPLC): initial content 98%
Procedure: In the comparative experiment of stability between 3-O-lactosyl-L-ascorbic acid and 2-O-α-D-glucopyranosyl-L-ascorbic acid (AA-2G), both compounds were prepared as 10%, 5% and 1.0% aqueous solutions respectively and were placed at 0° C., 25° C. and […] respectively for 3 months.

[5] = test system: B16F10 cells; test: DOPA staining of B16F10 cells (qualitative melanin/tyrosinase); type: cell-based, murine; details: 6 days, 0.5% L-DOPA, photos under microscope
Procedure: as §1
Each group was in quadruplicate and the culture medium was renewed every other day.

OC[C@H]1O[C@@H](Oc2ccc(O)cc2)[C@H](O)[C@@H](O)[C@@H]1O [Arbutin]
Multiplication rate of melanoma cell (MTT method, Mean ± SE) ([1]; 1.0 mM): 113.57 ± 5.57%
Multiplication rate of melanoma cell (MTT method, Mean ± SE) ([1]; 5.0 mM): 102.94 ± 3.64%
Multiplication rate of melanoma cell (MTT method, Mean ± SE) ([1]; 10.0 mM): 76.94 ± 6.08%
Multiplication rate of melanoma cell (MTT method, Mean ± SE) ([1]; 20.0 mM): 46.15 ± 3.41 %
Activity of tyrosinase of B16F10 melanoma cell (Mean ± SE) ([2]; 1.0 mM): 50.02 ± 4.04 %
Activity of tyrosinase of B16F10 melanoma cell (Mean ± SE) ([2]; 2.5 mM): 38.07 ± 1.78 %
Activity of tyrosinase of B16F10 melanoma cell (Mean ± SE) ([2]; 5.0 mM): 20.53 ± 1.02 %
Content of melanin of B16F10 cells (Mean ± SE) ([3]; 1.0 mM): 50.12 ± 1.97 %
Content of melanin of B16F10 cells (Mean ± SE) ([3]; 2.5 mM): 36.61 ± 2.15 %
Content of melanin of B16F10 cells (Mean ± SE) ([3]; 5.0 mM): 20.53 ± 1.02 %

O=c1cc(CO)occ1O [Kojic acid]
Multiplication rate of melanoma cell (MTT method, Mean ± SE) ([1]; 1.0 mM): 92.20 ± 8.28%
Multiplication rate of melanoma cell (MTT method, Mean ± SE) ([1]; 5.0 mM): 63.23 ± 3.66%
Multiplication rate of melanoma cell (MTT method, Mean ± SE) ([1]; 10.0 mM): 43.10 ± 2.31 %
Multiplication rate of melanoma cell (MTT method, Mean ± SE) ([1]; 20.0 mM): 43.55 ± 7.36 %
Content of melanin of B16F10 cells (Mean ± SE) ([3]; 1.0 mM): 37.20 ± 4.33 %
Content of melanin of B16F10 cells (Mean ± SE) ([3]; 2.5 mM): 24.15 ± 1.88 %
Content of melanin of B16F10 cells (Mean ± SE) ([3]; 5.0 mM): 17.65 ± 1.42 %

O=C1O[C@H]([C@@H](O)CO)C(O)=C1O[C@H]1O[C@H](CO)[C@@H](O)[C@H](O)[C@H]1O [VC derivative 1, 2-O-α-D-glucopyranosyl-L-ascorbic acid]
Color, in words ([4]; 0° C.): colorless
Content (HPLC), in words ([4]; 0° C.): almost unchanged
Color, in words ([4]; 25° C. and 45° C.): obviously yellow
Content (HPLC), in words ([4]; 25° C. and 45° C.): decreased
Multiplication rate of melanoma cell (MTT method, Mean ± SE) ([1]; 1.0 mM): 108.66 ± 9.32%
Multiplication rate of melanoma cell (MTT method, Mean ± SE) ([1]; 5.0 mM): 100.98 ± 14.79%
Multiplication rate of melanoma cell (MTT method, Mean ± SE) ([1]; 10.0 mM): 43.21 ± 7.40 %
Multiplication rate of melanoma cell (MTT method, Mean ± SE) ([1]; 20.0 mM): 8.17 ± 0.46 %
Concentration at which multiplication of B16F10 cells was significantly inhibited [1]: ≥ 5.0 mM
Concentration with no influence on the multiplication of B16F10 cells [1]: lower than 5.0 mM
Activity of tyrosinase of B16F10 melanoma cell (Mean ± SE) ([2]; 1.0 mM): 95.99 ± 2.01%
Activity of tyrosinase of B16F10 melanoma cell (Mean ± SE) ([2]; 2.5 mM): 92.40 ± 0.94%
Activity of tyrosinase of B16F10 melanoma cell (Mean ± SE) ([2]; 5.0 mM): 69.90 ± 1.733 %
Inhibiting effect on the activity of tyrosinase ([2]; rather weaker than 3-O-lactosyl-L-ascorbic acid): a certain inhibiting effect
Effect of inhibiting the synthesis of melanin [3]: relatively weak
Content of melanin of B16F10 cells (Mean ± SE) ([3]; 1.0 mM): 96.37 ± 3.63%
Content of melanin of B16F10 cells (Mean ± SE) ([3]; 2.5 mM): 91.11 ± 1.82%
Content of melanin of B16F10 cells (Mean ± SE) ([3]; 5.0 mM): 84.19 ± 1.85%

O=C1O[C@H]([C@@H](O)CO)C(OC2O[C@H](CO)[C@@H](O[C@@H]3O[C@H](CO)[C@H](O)[C@H](O)[C@H]3O)[C@H](O)[C@H]2O)=C1O (stereo partly drawn) [VC derivative 2, 3-O-(D-lactosyl)-L-ascorbic acid]
Color ([4]; 1% aqueous solution, 0 °C): Colorless
Content (HPLC) ([4]; 1% aqueous solution, 0 °C): 98%
Color ([4]; 1% aqueous solution, 25 °C): Colorless
Content (HPLC) ([4]; 1% aqueous solution, 25 °C): 98%
Color ([4]; 1% aqueous solution, 45 °C): Slight
Content (HPLC) ([4]; 1% aqueous solution, 45 °C): 96%
Color ([4]; 5% aqueous solution, 0 °C): Colorless
Content (HPLC) ([4]; 5% aqueous solution, 0 °C): 98%
Color ([4]; 5% aqueous solution, 25 °C): Colorless
Content (HPLC) ([4]; 5% aqueous solution, 25 °C): 98%
Color ([4]; 5% aqueous solution, 45 °C): Slight
Content (HPLC) ([4]; 5% aqueous solution, 45 °C): 96%
Color ([4]; 10% aqueous solution, 0 °C): Colorless
Content (HPLC) ([4]; 10% aqueous solution, 0 °C): 98%
Color ([4]; 10% aqueous solution, 25 °C): Colorless
Content (HPLC) ([4]; 10% aqueous solution, 25 °C): 98%
Color ([4]; 10% aqueous solution, 45 °C): Slight
Content (HPLC) ([4]; 10% aqueous solution, 45 °C): 94%
Color, in words ([4]; 0° C.): colorless
Content (HPLC), in words ([4]; 0° C.): almost unchanged
Color, in words ([4]; 25° C. and 45° C.): colorless
Content (HPLC), in words ([4]; 25° C. and 45° C.): changed little
Multiplication rate of melanoma cell (MTT method, Mean ± SE) ([1]; 1.0 mM): 72.67 ± 10.59%
Multiplication rate of melanoma cell (MTT method, Mean ± SE) ([1]; 5.0 mM): 79.34 ± 3.99%
Multiplication rate of melanoma cell (MTT method, Mean ± SE) ([1]; 10.0 mM): 76.56 ± 7.67%
Multiplication rate of melanoma cell (MTT method, Mean ± SE) ([1]; 20.0 mM): 66.67 ± 5.48 %
Concentration at which multiplication of B16F10 cells was significantly inhibited [1]: ≥ 10.0 mM
Concentration with no influence on the multiplication of B16F10 cells [1]: lower than 10.0 mM
Activity of tyrosinase of B16F10 melanoma cell (Mean ± SE) ([2]; 1.0 mM): 51.01 ± 2.71 %
Activity of tyrosinase of B16F10 melanoma cell (Mean ± SE) ([2]; 2.5 mM): 36.19 ± 2.98 %
Activity of tyrosinase of B16F10 melanoma cell (Mean ± SE) ([2]; 5.0 mM): 20.68 ± 1.34 %
Inhibition of tyrosinase activity compared with kojic acid ([2]; high concentration group (5.0 mM)): no statistical difference
Inhibition of the activity of tyrosinase ([2]; high, middle and low concentrations (5.0 mM, 2.5 mM and 1.0 mM)): significantly inhibited
Inhibition of tyrosinase activity compared with kojic acid ([2]; middle and low concentration groups (2.5 mM, 1.0 mM)): weaker
Inhibition of tyrosinase activity compared with arbutin ([2]; three concentration groups (5.0, 2.5, 1.0 mM)): no statistical difference
Degree of DOPA staining compared with blank control group [5]: lower degree of staining
Content of melanin of B16F10 cells (Mean ± SE) ([3]; 1.0 mM): 51.01 ± 2.71 %
Content of melanin of B16F10 cells (Mean ± SE) ([3]; 2.5 mM): 30.08 ± 3.77 %
Content of melanin of B16F10 cells (Mean ± SE) ([3]; 5.0 mM): 22.24 ± 1.80 %
Inhibiting melanin synthesis compared with kojic acid and arbutin ([3]; at the same concentration): no statistical difference
